Experimental data reported in ChEMBL document CHEMBL3259622, “Enhancing a CH-π Interaction to Increase the Affinity for 5-HT1A Receptors” (ACS Med Chem Lett, 2014).
The source made the active and inactive calls. The rule behind the calls is not given here.

target: T1, 5-hydroxytryptamine receptor 1A (Homo sapiens, UniProt P08908); test: Displacement of [3H]-[…] from human recombinant 5HT1A receptor expressed in CHO cells after 60 mins by liquid scintillation counting analysis; assay type: cell-based
T1 sequence (P08908 whole entry): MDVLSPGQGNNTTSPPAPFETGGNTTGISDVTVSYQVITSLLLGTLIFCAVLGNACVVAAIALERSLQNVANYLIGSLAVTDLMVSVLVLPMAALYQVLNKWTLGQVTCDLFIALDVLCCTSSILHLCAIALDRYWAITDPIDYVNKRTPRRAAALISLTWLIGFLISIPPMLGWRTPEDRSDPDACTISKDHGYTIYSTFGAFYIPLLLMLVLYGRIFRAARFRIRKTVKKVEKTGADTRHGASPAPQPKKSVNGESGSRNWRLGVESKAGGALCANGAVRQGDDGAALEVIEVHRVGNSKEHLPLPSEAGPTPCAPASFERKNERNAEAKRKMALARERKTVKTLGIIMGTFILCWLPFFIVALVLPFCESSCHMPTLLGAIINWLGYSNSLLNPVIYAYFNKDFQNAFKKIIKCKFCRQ

SMILES	Ki
O=C(NCCN1CCN(c2cc(F)cc(F)c2)CC1)c1ccc2ccccc2c1	28.9 nM
O=C(NCCN1CCN(c2ccccc2)CC1)c1ccc2ccccc2c1	24.7 nM
O=C(NCCN1CCN(c2ccc(Cl)cc2)CC1)c1ccc2ccccc2c1	50.7 nM
O=C1c2ccccc2C(=O)N1CCN1CC=C(c2cc(F)cc(F)c2)CC1	425 nM
O=C1c2ccccc2C(=O)N1CCN1CC=C(c2ccc(Cl)cc2)CC1	631 nM
O=C(NCCN1CC=C(c2cc(F)cc(F)c2)CC1)c1cnc2ccccc2n1	2.62 nM
O=C(NCCN1CC=C(c2ccc(F)cc2)CC1)c1ccc2ccccc2c1	33.5 nM
O=C1c2ccccc2C(=O)N1CCN1CC=C(c2ccccc2)CC1	706 nM
O=C(NCCN1CC=C(c2ccc(F)cc2)CC1)c1cnc2ccccc2n1	14 nM
Cc1cc(C)cc(C2=CCN(CCNC(=O)c3cnc4ccccc4n3)CC2)c1	1.1 nM
Cc1cc(C)cc(N2CCN(CCN3C(=O)c4ccccc4C3=O)CC2)c1	496 nM
O=C(NCCN1CCN(c2ccc(F)cc2)CC1)c1cnc2ccccc2n1	63.3 nM
O=C(NCCN1CCN(c2ccc(Cl)cc2)CC1)c1cnc2ccccc2n1	27 nM
Cc1ccc(C2=CCN(CCNC(=O)c3ccc4ccccc4c3)CC2)cc1	31.6 nM
O=C(NCCN1CCN(c2ccccc2)CC1)c1cnc2ccccc2n1	30 nM
O=C(NCCN1CCN(c2cc(F)cc(F)c2)CC1)c1cnc2ccccc2n1	11.1 nM
O=C(NCCN1CC=C(c2ccccc2)CC1)c1cnc2ccccc2n1	3.76 nM
Cc1cc(C)cc(C2=CCN(CCNC(=O)c3ccc4ccccc4c3)CC2)c1	8.06 nM
O=C(NCCN1CC=C(c2cc(F)cc(F)c2)CC1)c1ccc2ccccc2c1	7.29 nM
O=C(NCCN1CC=C(c2ccc(Cl)cc2)CC1)c1cnc2ccccc2n1	9.3 nM
Cc1ccc(C2=CCN(CCNC(=O)c3cnc4ccccc4n3)CC2)cc1	7.55 nM
Cc1cc(C)cc(N2CCN(CCNC(=O)c3cnc4ccccc4n3)CC2)c1	3.67 nM
Cc1cc(C)cc(C2=CCN(CCN3C(=O)c4ccccc4C3=O)CC2)c1	105 nM
Cc1ccc(N2CCN(CCNC(=O)c3cnc4ccccc4n3)CC2)cc1	27.3 nM
O=C(NCCN1CC=C(c2ccccc2)CC1)c1ccc2ccccc2c1	6.1 nM
O=C(NCCN1CC=C(c2ccc(Cl)cc2)CC1)c1ccc2ccccc2c1	42.5 nM
O=C(NCCN1CCN(c2ccc(F)cc2)CC1)c1ccc2ccccc2c1	54.3 nM
Cc1ccc(N2CCN(CCNC(=O)c3ccc4ccccc4c3)CC2)cc1	221 nM
Cc1cc(C)cc(N2CCN(CCNC(=O)c3ccc4ccccc4c3)CC2)c1	21 nM

target: T2, 5-hydroxytryptamine receptor 1A (Rattus norvegicus, UniProt P19327); test: Agonist activity at Wistar rat brain 5HT1A receptor assessed as inhibition of firing rate of dorsal raphe nucleus by electrophysiological analysis; assay type: tissue-based
T2 sequence (P19327 whole entry): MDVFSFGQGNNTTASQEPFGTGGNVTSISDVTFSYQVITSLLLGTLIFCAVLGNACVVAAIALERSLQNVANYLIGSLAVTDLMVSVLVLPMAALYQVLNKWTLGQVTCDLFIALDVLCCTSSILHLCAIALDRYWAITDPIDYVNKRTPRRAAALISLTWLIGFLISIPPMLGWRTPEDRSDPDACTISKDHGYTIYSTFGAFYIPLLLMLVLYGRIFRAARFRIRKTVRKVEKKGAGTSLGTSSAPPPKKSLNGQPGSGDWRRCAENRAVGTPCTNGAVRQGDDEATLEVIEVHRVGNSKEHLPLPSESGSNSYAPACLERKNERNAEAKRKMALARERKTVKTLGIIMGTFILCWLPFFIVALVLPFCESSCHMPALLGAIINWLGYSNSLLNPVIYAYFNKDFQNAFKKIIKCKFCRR

SMILES	IC50
O=C(NCCN1CC=C(c2cc(F)cc(F)c2)CC1)c1cnc2ccccc2n1	95 nM
Cc1cc(C)cc(C2=CCN(CCNC(=O)c3cnc4ccccc4n3)CC2)c1	172 nM
O=C(NCCN1CCN(c2ccccc2)CC1)c1cnc2ccccc2n1	1680 nM
O=C(NCCN1CCN(c2cc(F)cc(F)c2)CC1)c1cnc2ccccc2n1	1140 nM
O=C(NCCN1CC=C(c2ccccc2)CC1)c1cnc2ccccc2n1	460 nM
Cc1cc(C)cc(N2CCN(CCNC(=O)c3cnc4ccccc4n3)CC2)c1	383 nM

target: T3, 5-hydroxytryptamine receptor 1A (Homo sapiens) (UniProt P08908); test: Displacement of [3H]-[…] from human recombinant 5HT1A receptor expressed in CHO cells assessed as residual activity at 1 uM after 60 mins by liquid scintillation counting analysis; assay type: cell-based
T3 sequence (whole entry): T1 sequence (P08908 whole entry)

SMILES	Activity
Cc1ccc(C2=CCN(CCN3C(=O)c4ccccc4C3=O)CC2)cc1	80%
O=C1c2ccccc2C(=O)N1CCN1CC=C(c2ccc(F)cc2)CC1	76.8%

Now from value to molecule:

Activity	SMILES
82%	O=C1c2ccccc2C(=O)N1CCN1CCN(c2ccccc2)CC1
80.4%	O=C1c2ccccc2C(=O)N1CCN1CCN(c2ccc(F)cc2)CC1
97.4%	O=C1c2ccccc2C(=O)N1CCN1CCN(c2ccc(Cl)cc2)CC1
97%	Cc1ccc(N2CCN(CCN3C(=O)c4ccccc4C3=O)CC2)cc1
79.6%	O=C1c2ccccc2C(=O)N1CCN1CCN(c2cc(F)cc(F)c2)CC1

target: T4, 5-hydroxytryptamine receptor 1A (Rattus norvegicus) (UniProt P19327); test: Agonist activity at Wistar rat brain 5HT1A receptor assessed as inhibition of firing rate of dorsal raphe nucleus by electrophysiological analysis in presence of WAY-100635; assay type: tissue-based
T4 sequence (whole entry): T2 sequence (P19327 whole entry)

SMILES	inhibition
O=C(NCCN1CC=C(c2cc(F)cc(F)c2)CC1)c1cnc2ccccc2n1	inactive
Cc1cc(C)cc(C2=CCN(CCNC(=O)c3cnc4ccccc4n3)CC2)c1	inactive
O=C(NCCN1CCN(c2ccccc2)CC1)c1cnc2ccccc2n1	inactive
O=C(NCCN1CCN(c2cc(F)cc(F)c2)CC1)c1cnc2ccccc2n1	inactive
O=C(NCCN1CC=C(c2ccccc2)CC1)c1cnc2ccccc2n1	inactive
Cc1cc(C)cc(N2CCN(CCNC(=O)c3cnc4ccccc4n3)CC2)c1	inactive
